Assay results published in patent US20250129095A1, “ANNULATED 2-AMINO-3-CYANO THIOPHENES AND DERIVATIVES FOR THE TREATMENT OF CANCER” (Boehringer Ingelheim Int'l GmbH Corp., priority 2021, published 2025).
pIC50: −log10 of the molar value.

Experiments:
[1] = Metabolic (microsomal) stability assay, human liver microsomes (HLM); assay type: in vitro ADME; conditions: 1 μM, predicted clearance as percent of liver blood flow
Protocol: The metabolic degradation of the test compound is assayed at 37° C. with pooled liver microsomes (mouse (MLM), rat (RLM) or human (HLM)). The final incubation volume of 48 μL per time point contains TRIS buffer (pH 7.5; 0.1 M), magnesium chloride (6.5 mM), microsomal protein (0.5 mg/mL for mouse/rat, 1 mg/mL for human specimens) and the test compound at a final concentration of 1 μM. Following a short preincubation period at 37° C., the reactions are initiated by addition of 12 μL beta-nicotinamide adenine dinucleotide phosphate, reduced form (NADPH, 10 mM) and terminated by transferring an aliquot into solvent after different time points (0, 5, 15, 30, 60 min). Additionally, the NADPH-independent degradation is monitored in incubations without NADPH, terminated at the last time point by addition of acetonitrile. The quenched incubations are pelleted by centrifugation (4,000 rpm, 15 min). An aliquot of the supernatant is assayed by LC-MS/MS to quantify the concentration of parent compound in the individual samples.
In vitro intrinsic clearance (CLint, in vitro) is calculated from the time course of the disappearance of the test drug during the microsomal incubation. Each plot is fitted to the first-order elimination rate constant as C(t)=C0*exp(−ke*t), where C(t) and C0 are the concentration of unchanged test drug at incubation time t and that at preincubation and ke is the disappearance rate constant of the unchanged drug. Subsequently, CLint, in vitro (μL min^−1·amount protein) values are converted to predicted CLint, in vitro (mL min^−1·kg^−1) from incubation parameters according to the equation CLint, in vitro=CLint, in vitro×(incubation volume (ml)/amount protein (mg))×(amount protein (mg)/g liver tissue)×(liver weight/body wt.). For better across species comparison the predicted clearance is expressed as percent of the liver blood flow [% QH](mL min^−1·kg^−1) in the individual species. In general, high stability (corresponding to low % QH) of the compounds across species is desired.

[2] = molecular target: T1, KRAS (G12C)::SOS1 (Homo sapiens, UniProt P01116, C118S/C51S/C80L/G12C); assay: KRAS::SOS1 AlphaScreen binding assay, KRAS G12C; conditions: read-out: KRASG12C IC50
T1 construct: KRAS (G12C) 1-169, N-terminal 6His-tag for purification, cleaved off; 6His-tag (N, cleaved yes); made in house
T1 sequence (P01116 1-169 isoform P01116-2 G12C/C51S/C80L/C118S): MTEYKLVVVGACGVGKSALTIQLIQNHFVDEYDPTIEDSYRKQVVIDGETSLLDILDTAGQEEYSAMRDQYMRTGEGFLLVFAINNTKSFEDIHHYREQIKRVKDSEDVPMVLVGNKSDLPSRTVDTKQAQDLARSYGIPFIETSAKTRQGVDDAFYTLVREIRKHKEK
From the text: This assay can be used to examine the potency with which compounds according to the invention binding to (mutated) KRAS inhibit the protein-protein interaction between SOS1 and (mutated) KRAS e.g., KRAS WT, KRAS G12C, KRAS G12D, KRAS G12V, KRAS G13D. […] Low IC50 values in this assay setting are indicative of strong inhibition of protein-protein interaction between SOS1 and KRAS:
These assays measure the inhibitory effect of compounds on KRAS mutant protein-protein interactions using the Alpha Screen technology by Perkin Elmer
The following (mutant) enzyme forms of KRAS and interacting proteins are used in these assays at the given concentrations: • KRAS (G12D) 1-169, N-terminal 6His-tag, C-terminal avi-tag (Xtal BioStructures, Inc.); final assay concentration 10 nM and SOS1 564-1049, N-terminal 229 GST-tag, TEV cleavage site (Viva Biotech Ltd); final assay concentration 5 nM; • KRAS (G12C) 1-169, N-terminal 6His-tag for purification, cleaved off, C-terminal avi-tag, biotinylated, mutations: C51S, C80L, C118S (in house); final assay concentration 7.5 nM and SOS1 564-1049, N-terminal 229 GST-tag, TEV cleavage site (Viva Biotech Ltd); final assay concentration 5 nM; • KRAS (G12V) 1-169, N-terminal 6His-tag for purification, cleaved off, C-terminal avi-tag, biotinylated, TEV cleavage site, mutation: C118S, GDP loaded (in house); final assay concentration 10 nM and SOS1 564-1049, N-terminal 229 GST-tag, TEV cleavage site (Viva Biotech Ltd); final assay concentration 10 nM; • KRAS (G13D) 1-169, N-terminal 6His-tag for purification, cleaved off, C-terminal avi-tag, biotinylated, TEV cleavage site, mutation: C118S, GDP loaded (in house); final assay concentration 10 nM and SOS1 564-1049, N-terminal 229 GST-tag, TEV cleavage site (Viva Biotech Ltd); final assay concentration 10 nM; • KRAS (WT) 1-169, N-terminal 6His-tag for purification, cleaved off, C-terminal avi-tag, biotinylated, TEV cleavage site, mutation: C118S, GDP loaded (in house); final assay concentration 10 nM and SOS1 564-1049, N-terminal 229 GST-tag, TEV cleavage site (Viva Biotech Ltd); final assay concentration 10 nM.
Test compounds dissolved in DMSO are dispensed onto assay plates (Proxiplate 384 PLUS, white, PerkinElmer; 6008289) using an Access Labcyte Workstation with the Labcyte Echo 55×. For the chosen highest assay concentration of 100 μM, 150 nL of compound solution are transferred from a 10 mM DMSO compound stock solution. A series of eleven fivefold dilutions per compound are transferred to the assay plate, compound dilutions are tested in duplicates. DMSO are added as backfill to a total volume of 150 nL.
The assays run on a fully automated robotic system in a darkened room below 100 Lux. To 150 nl of compound dilution 10 μl of a mix including KRAS mutant protein, SOS1 (final assay concentrations see above) and GDP nucleotide (Sigma G7127; final assay concentration 10 μM) in assay buffer (1×PBS, 0.1% BSA, 0.05% Tween 20) are added into columns 1-24.
After 30 minutes incubation time 5 μl of Alpha Screen bead mix in assay buffer are added into columns 1-23. Bead mix consists of AlphaLISA Glutathione Acceptor Beads (PerkinElmer, Cat No AL109) and AlphaScreen Streptavidin Donor Beads (PerkinElmer Cat No 6760002) in assay buffer at a final assay concentration of 10 μg/ml each.
Plates are kept at room temperature in a darkened incubator. After an additional 60 minutes incubation time the signal is measured in a PerkinElmer Envision HTS Multilabel Reader using the AlphaScreen specs from PerkinElmer.
Each plate contains up to 16 wells of a negative control depending on the dilution procedure (platewise or serial) (DMSO instead of test compound; with KRAS mutant::SOS1 GDP mix and bead mix; column 23) and 16wells of a positive control (DMSO instead of test compound; with KRAS mutant::SOS1 GDP mix w/o bead mix; column 24).
As internal control known inhibitors of KRAS mutant::SOS1 interaction can be measured on each compound plate. […]

| SMILES | HLM QH [%] [1] | pIC50 [2] |
| --- | --- | --- |
| C[C@H](Oc1cc(Oc2cncnc2)nc(-c2noc3c2CCC[C@@]32CCCc3sc(N)c(C#N)c32)n1)[C@@H]1CCCN1C [II-1] | <24% | 9.00 |
| C[C@H](Oc1cc(Nc2ccccn2)nc(-c2onc3c2CCC[C@@]32CCCc3sc(N)c(C#N)c32)n1)[C@@H]1CCCN1C [Example I-6] | <24% | 8.52 |
| C[C@H](Oc1cc(Oc2cncnc2)nc(-c2onc3c2CCC[C@@]32CCCc3sc(N)c(C#N)c32)n1)[C@@H]1CCCN1C [Example I-3] | 69% | 9.00 |
| C[C@H](Oc1cc(OCC2(N(C)C)CC2)nc(-c2noc3c2CCC[C@@]32CCCc3sc(N)c(C#N)c32)n1)[C@@H]1CCCN1C [II-21] | 48% | 8.52 |
| C[C@H](Oc1cc(NCC2COC2)nc(-c2noc3c2CCC[C@@]32CCCc3sc(N)c(C#N)c32)n1)[C@@H]1CCCN1C [II-11] | 36% | 8.70 |
| C[C@H](Oc1cc(Nc2ncccn2)nc(-c2noc3c2CCC[C@@]32CCCc3sc(N)c(C#N)c32)n1)[C@@H]1CCCN1C [II-17] | <24% | 8.70 |
| C[C@H](Oc1cc(OCC2(N(C)C)COC2)nc(-c2noc3c2CCC[C@@]32CCCc3sc(N)c(C#N)c32)n1)[C@@H]1CCCN1C [II-22] | 53% | 8.70 |
| COc1c(OCC2(N(C)C)COC2)nc(-c2noc3c2CCC[C@@]32CCCc3sc(N)c(C#N)c32)nc1O[C@@H](C)[C@@H]1CCCN1C [II-25] | 46% | 8.70 |
| C[C@H](Oc1cc(O[C@H]2CN(C)C(C)(C)C2)nc(-c2noc3c2CCC[C@@]32CCCc3sc(N)c(C#N)c32)n1)[C@@H]1CCCN1C [II-19] | <24% | 8.40 |
| C[C@H](Oc1cc(Oc2cnccn2)nc(-c2noc3c2CCC[C@@]32CCCc3sc(N)c(C#N)c32)n1)[C@@H]1CCCN1C [II-7] | 72% | 8.70 |
| C[C@H](Oc1cc(Nc2nccs2)nc(-c2noc3c2CCC[C@@]32CCCc3sc(N)c(C#N)c32)n1)[C@@H]1CCCN1C [II-12] | <24% | 8.40 |
| C[C@H](Oc1cc(N[C@H]2CCOC2)nc(-c2onc3c2CCC[C@@]32CCCc3sc(N)c(C#N)c32)n1)[C@@H]1CCCN1C [Example I-4] | 26% | 8.52 |

Continued by rising pIC50 [2], values first:

| HLM QH [%] [1] | pIC50 [2] | SMILES |
| --- | --- | --- |
| <24% | 8.00 | C[C@H](Oc1cc(N(C)CCN(C)C)nc(-c2noc3c2CCC[C@@]32CCCc3sc(N)c(C#N)c32)n1)[C@@H]1CCCN1C [II-20] |
| 26% | 8.22 | C[C@H]1CN(C)CCCN1c1cc(O[C@@H]2CNC2(C)C)nc(-c2noc3c2CCC[C@@]32CCCc3sc(N)c(C#N)c32)n1 [II-28] |
| <24% | 8.52 | C[C@H](Oc1cc(Nc2cnccn2)nc(-c2noc3c2CCC[C@@]32CCCc3sc(N)c(C#N)c32)n1)[C@@H]1CCCN1C [II-14] |
| <24% | 8.52 | C[C@H](Oc1cc(Nc2ccncn2)nc(-c2noc3c2CCC[C@@]32CCCc3sc(N)c(C#N)c32)n1)[C@@H]1CCCN1C [II-15] |
| 41% | 8.70 | C[C@H](Oc1cc(Nc2cccnn2)nc(-c2noc3c2CCC[C@@]32CCCc3sc(N)c(C#N)c32)n1)[C@@H]1CCCN1C [II-18] |
| 70% | 8.70 | C[C@H](Oc1cc(Oc2ccon2)nc(-c2noc3c2CCC[C@@]32CCCc3sc(N)c(C#N)c32)n1)[C@@H]1CCCN1C [II-3] |
| 42% | 8.70 | C[C@H](Oc1cc(Nc2ccccn2)nc(-c2noc3c2CCC[C@@]32CCCc3sc(N)c(C#N)c32)n1)[C@@H]1CCCN1C [II-16] |
| <24% | 8.70 | C[C@H](Oc1cc(O[C@H]2CNC(C)(C)C2)nc(-c2noc3c2CCC[C@@]32CCCc3sc(N)c(C#N)c32)n1)[C@@H]1CCCN1C (single isomer, unassigned) [II-8] |
| 30% | 8.70 | C[C@H](Oc1cc(OCC2(N(C)C)COC2)nc(-c2onc3c2CCC[C@@]32CCCc3sc(N)c(C#N)c32)n1)[C@@H]1CCCN1C [Example I-8] |
| 46% | 8.70 | C[C@H](Oc1cc(Oc2nccs2)nc(-c2noc3c2CCC[C@@]32CCCc3sc(N)c(C#N)c32)n1)[C@@H]1CCCN1C [II-2] |
| 59% | 8.70 | C[C@H](Oc1cc(O[C@H]2CCOC2)nc(-c2noc3c2CCC[C@@]32CCCc3sc(N)c(C#N)c32)n1)[C@@H]1CCCN1C [II-4] |
| 28% | 8.70 | C[C@H](Oc1cc(O[C@@H]2CNC[C@@H]2F)nc(-c2noc3c2CCC[C@@]32CCCc3sc(N)c(C#N)c32)n1)[C@@H]1CCCN1C [II-29] |
| 31% | 8.70 | COCCOc1cc(O[C@@H](C)[C@@H]2CCCN2C)nc(-c2noc3c2CCC[C@@]32CCCc3sc(N)c(C#N)c32)n1 [II-5] |
| <24% | 8.70 | C[C@H](Oc1cc(Nc2ncco2)nc(-c2noc3c2CCC[C@@]32CCCc3sc(N)c(C#N)c32)n1)[C@@H]1CCCN1C [II-13] |
